According to the supplement of paper PMC11208160:

Assay: recombinant barcode read abundance after kanamycin selection (control-corrected) (log10(CPM+1)); higher = more efficient recombination; sequences stand for … in AGTGCAGAGAAAATCGGCCAGTTTTCTCTGCCTGCAGTCCGCATGCCGT…AGATTTATGCAGCGGACTGCCTTTCTCCCAAAGTGATAAACCGGACAGTATCATGGACCGGTTTTCCCGGTAATCCGTATTTGCAAGGTTGGTTTCACT; site = the 11-nt target
Method in brief: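 Reported as log10(CPM+1), each value stands for recombination efficiency. That efficiency is the averaged, control-corrected counts per million of barcodes found at recombinant junctions. Cells from a pooled E. coli library pairing targets with IS621 bridge RNA target-binding loops were plated twice on chloramphenicol/ampicillin LB agar (control) and twice on chloramphenicol/ampicillin/kanamycin with 0.1 mM IPTG.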
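Further: IS621 recombinase and bridge RNA in Escherichia coli cells.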

Row | Sequence | recombinant barcode read abundance (log10)
1 | GGGTAACCTTGGGTTCTAACCTGTTGCCT (site AGGTAACCTAG) | 0
2 | GGGTAACCTTGGGTTCTAACCTGTTGCCT (site CGGTAACCTAG) | 0.064
3 | GGGTAACCTTGGGTTCTAACCTGTTGCCT (site GGGTAACCTAG) | 0.406
4 | GGGTAACCTTGGGTTCTAACCTGTTGCCT (site TGGTAACCTAG) | 0.19
5 | GGGTCCACTTGGGTTCTAACCTGTTGCCA (site GGGTCCACTCC) | 0.127
6 | GGGTCCACTTGGGTTCTAACCTGTTGCCA (site GGGTCCACTTG) | 1.44
7 | GGGTCCTCTTGGGTTCTAACCTGTTGCCA (site GGGTCCTCTAG) | 1.69
8 | GGGTCCTCTTGGGTTCTAACCTGTTGCCA (site GGGTCCTCTCG) | 0.29
9 | GGGTCCTCTTGGGTTCTAACCTGTTGCCA (site GGGTCCTCTGG) | 0.0677
10 | GGGTCCTCTTGGGTTCTAACCTGTTGCCA (site GGGTCCTCTTG) | 1.29
11 | GGGTCCTCTTGGGTTCTAACCTGTTGCCT (site GGGTCCTCTAG) | 2.24
12 | GGGTCCTCTTGGGTTCTAACCTGTTGCCT (site GGGTCCTCTCG) | 0.776
13 | GGGTCCTCTTGGGTTCTAACCTGTTGCCT (site GGGTCCTCTGG) | 0.578
14 | GGGTCCTCTTGGGTTCTAACCTGTTGCCT (site GGGTCCTCTTG) | 0.155
15 | GGGTCGGCTTGGGTTCTAACCTGTTGCGA (site GGGTCGGCTAC) | 0.231
16 | GGGTCGGCTTGGGTTCTAACCTGTTGCGA (site GGGTCGGCTCC) | 0.552
17 | GGGTCGGCTTGGGTTCTAACCTGTTGCGA (site GGGTCGGCTGC) | 0.179
18 | GGGTCGGCTTGGGTTCTAACCTGTTGCGA (site GGGTCGGCTTC) | 2.27
19 | GGTAAAGCTTGGGTTCTAACCTGTTGCCT (site GGTAAAGCTAG) | 0.71
20 | GGTAAAGCTTGGGTTCTAACCTGTTGCCT (site GGTATAGCTAG) | 0.216
21 | GGTAATACTTGGGTTCTAACCTGTTGCAT (site AACGTACCTTG) | 0.191
22 | GGTAATACTTGGGTTCTAACCTGTTGCAT (site GGTAATACTAT) | 0.957

Row | Sequence | recombinant barcode read abundance (log10)
23 | GGTACGCCTTGGGTTCTAACCTGTTGCAT (site GGTACGACTCT) | 0.17
24 | GGTACGCCTTGGGTTCTAACCTGTTGCAT (site GGTACGCCTAT) | 0.685
25 | GGTAGGACTTGGGTTCTAACCTGTTGCCT (site AGTAGGACTAG) | 0.239
26 | GGTAGGACTTGGGTTCTAACCTGTTGCCT (site CGTAGGACTAG) | 0.0936
27 | GGTAGGACTTGGGTTCTAACCTGTTGCCT (site GGTAGGACTAG) | 0.278
28 | GGTAGGACTTGGGTTCTAACCTGTTGCCT (site TGTAGGACTAG) | 0.0335
29 | GGTATGACTTGGGTTCTAACCTGTTGCCT (site AGTATGACTAG) | 0.595
30 | GGTATGACTTGGGTTCTAACCTGTTGCCT (site CGTATGACTAG) | 0.197
31 | GGTATGACTTGGGTTCTAACCTGTTGCCT (site GGTATGACTAG) | 0.956
32 | GGTATGACTTGGGTTCTAACCTGTTGCCT (site TGTATGACTAG) | 0.0723
33 | GGTATGTCTTGGGTTCTAACCTGTTGCCT (site AGTATGTCTAG) | 0.204
34 | GGTATGTCTTGGGTTCTAACCTGTTGCCT (site CGTATGTCTAG) | 0.0446
35 | GGTATGTCTTGGGTTCTAACCTGTTGCCT (site GGTATGTCTAG) | 1.96
36 | GGTATGTCTTGGGTTCTAACCTGTTGCCT (site TGTATGTCTAG) | 0.106
37 | GGTCATTCTTGGGTTCTAACCTGTTGCCT (site GGTCATACTAG) | 0.0311
38 | GGTCATTCTTGGGTTCTAACCTGTTGCCT (site GGTCATCCTAG) | 0.157
39 | GGTCATTCTTGGGTTCTAACCTGTTGCCT (site GGTCATGCTAG) | 0.0124
40 | GGTCATTCTTGGGTTCTAACCTGTTGCCT (site GGTCATTCTAG) | 0.626
41 | GGTCGGACTTGGGTTCTAACCTGTTGCCA (site GGACGGACTTG) | 0.281
42 | GGTCGGACTTGGGTTCTAACCTGTTGCCA (site GGTCGGACTTG) | 0.548
43 | GGTCGGACTTGGGTTCTAACCTGTTGCGT (site GGAGGGACTAC) | 0.0819
44 | GGTCGGACTTGGGTTCTAACCTGTTGCGT (site GGTCGGACTAC) | 2.17

Row | Sequence | recombinant barcode read abundance (log10)
45 | GGTCGTACTTGGGTTCTAACCTGTTGCCT (site CCGTTGTCTTA) | 0.177
46 | GGTCGTACTTGGGTTCTAACCTGTTGCCT (site GGTCGTACTAG) | 0.286
47 | GGTGAGCCTTGGGTTCTAACCTGTTGCGT (site CACACTACTCA) | 0.0427
48 | GGTGAGCCTTGGGTTCTAACCTGTTGCGT (site GGTGAGCCTAC) | 2.68
49 | GGTGCCTCTTGGGTTCTAACCTGTTGCAT (site GGGGCCTCTCT) | 0.258
50 | GGTGCCTCTTGGGTTCTAACCTGTTGCAT (site GGTGCCTCTAT) | 1.46
51 | GGTGCGGCTTGGGTTCTAACCTGTTGCCT (site AGTGCGGCTAG) | 0.492
52 | GGTGCGGCTTGGGTTCTAACCTGTTGCCT (site CGTGCGGCTAG) | 0.139
53 | GGTGCGGCTTGGGTTCTAACCTGTTGCCT (site GGTGCGGCTAG) | 0.494
54 | GGTGCGGCTTGGGTTCTAACCTGTTGCCT (site TGTGCGGCTAG) | 0.505
55 | GGTGGATCTTGGGTTCTAACCTGTTGCCT (site GGTGACTCTAG) | 0.0125
56 | GGTGGATCTTGGGTTCTAACCTGTTGCCT (site GGTGGATCTAG) | 0.813
57 | GGTGGCTCTTGGGTTCTAACCTGTTGCCA (site GGTGGCTCTTG) | 0.607
58 | GGTGGCTCTTGGGTTCTAACCTGTTGCCA (site TAATCTCCTAC) | 0.0407
59 | GGTGGGTCTTGGGTTCTAACCTGTTGCAT (site GGTGGGTCTAA) | 0.345
60 | GGTGGGTCTTGGGTTCTAACCTGTTGCAT (site GGTGGGTCTAC) | 0.128
61 | GGTGGGTCTTGGGTTCTAACCTGTTGCAT (site GGTGGGTCTAG) | 0.805
62 | GGTGGGTCTTGGGTTCTAACCTGTTGCAT (site GGTGGGTCTAT) | 2.25
63 | GGTGGGTCTTGGGTTCTAACCTGTTGCCT (site GGTGGGTCTAA) | 0.123
64 | GGTGGGTCTTGGGTTCTAACCTGTTGCCT (site GGTGGGTCTAC) | 0.123
65 | GGTGGGTCTTGGGTTCTAACCTGTTGCCT (site GGTGGGTCTAG) | 1.29
66 | GGTGGGTCTTGGGTTCTAACCTGTTGCCT (site GGTGGGTCTAT) | 0.382

Row | Sequence | recombinant barcode read abundance (log10)
67 | GGTTCCTCTTGGGTTCTAACCTGTTGCCT (site GGATCGTCTAG) | 0.0714
68 | GGTTCCTCTTGGGTTCTAACCTGTTGCCT (site GGTTCCTCTAG) | 1.11
69 | GGTTCTCCTTGGGTTCTAACCTGTTGCCT (site AGTTCTCCTAG) | 0.0625
70 | GGTTCTCCTTGGGTTCTAACCTGTTGCCT (site CGTTCTCCTAG) | 0.0451
71 | GGTTCTCCTTGGGTTCTAACCTGTTGCCT (site GGTTCTCCTAG) | 0.288
72 | GGTTCTCCTTGGGTTCTAACCTGTTGCCT (site TGTTCTCCTAG) | 0.0347
73 | GGTTCTTCTTGGGTTCTAACCTGTTGCCT (site GATTCTTCTAG) | 0.12
74 | GGTTCTTCTTGGGTTCTAACCTGTTGCCT (site GCTTCTTCTAG) | 0.0288
75 | GGTTCTTCTTGGGTTCTAACCTGTTGCCT (site GGTTCTTCTAG) | 0.344
76 | GGTTCTTCTTGGGTTCTAACCTGTTGCCT (site GTTTCTTCTAG) | 0.19
77 | GGTTGACCTTGGGTTCTAACCTGTTGCGG (site GGTTGACCTCC) | 1.51
78 | GGTTGACCTTGGGTTCTAACCTGTTGCGG (site GGTTGCCCTCC) | 0.0589
79 | GGTTGACCTTGGGTTCTAACCTGTTGCGG (site GGTTGGCCTCC) | 0.0632
80 | GGTTGACCTTGGGTTCTAACCTGTTGCGG (site GGTTGTCCTCC) | 0.0522
81 | GGTTGCCCTTGGGTTCTAACCTGTTGCGG (site GGTTGACCTCC) | 0.295
82 | GGTTGCCCTTGGGTTCTAACCTGTTGCGG (site GGTTGCCCTCC) | 0.946
83 | GGTTGCCCTTGGGTTCTAACCTGTTGCGG (site GGTTGGCCTCC) | 0.0682
84 | GGTTGCCCTTGGGTTCTAACCTGTTGCGG (site GGTTGTCCTCC) | 0.0903
85 | GGTTGTCCTTGGGTTCTAACCTGTTGCCT (site GGTGGTCCTAG) | 0.253
86 | GGTTGTCCTTGGGTTCTAACCTGTTGCCT (site GGTTGTCCTAG) | 0.328
